Like-named read-outs stand apart in the source and are kept apart here.

Assay [1] concerns the target T1, sEH (Homo sapiens, UniProt P34913).
T1 sequence (P34913 1-555): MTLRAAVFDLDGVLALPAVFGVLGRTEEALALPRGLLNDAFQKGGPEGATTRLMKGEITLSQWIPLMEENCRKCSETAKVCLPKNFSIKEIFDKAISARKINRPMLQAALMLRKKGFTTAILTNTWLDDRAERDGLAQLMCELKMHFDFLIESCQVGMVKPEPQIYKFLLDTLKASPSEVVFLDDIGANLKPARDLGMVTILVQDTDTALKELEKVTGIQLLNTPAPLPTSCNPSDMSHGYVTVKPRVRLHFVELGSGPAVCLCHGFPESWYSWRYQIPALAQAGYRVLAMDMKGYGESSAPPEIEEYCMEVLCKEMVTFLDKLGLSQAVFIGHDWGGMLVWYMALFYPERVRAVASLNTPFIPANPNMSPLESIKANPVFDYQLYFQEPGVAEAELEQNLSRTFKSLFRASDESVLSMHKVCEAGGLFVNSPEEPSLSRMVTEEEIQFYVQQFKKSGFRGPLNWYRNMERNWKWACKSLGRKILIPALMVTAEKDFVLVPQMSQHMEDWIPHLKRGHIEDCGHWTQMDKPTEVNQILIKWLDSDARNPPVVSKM
Put plainly: sEH inhibitory activity. The conditions noted are these: for Inhibition of compounds against sEH, 50 μM (%): compound at 50 μM.

Assay [2] has as its target T1, sEH. The assay is described as follows: Inhibitory kinetic analysis.
The mark [3] stands for this setting: PHOME 10 μM, 20 min, 37 °C, pH 7.4.
Where [4] appears, read: read-out: Inhibition of compounds against sEH, IC50, PHOME 10 μM, 20 min, 37 °C, pH 7.4.

As for `C=C(C)[C@@H](O)[C@@H]1C[C@@H](C)[C@@]2(CC[C@@]3(C)C2=C[C@H](OC)[C@H]2[C@@]4(C)CCC(=O)C(C)(C)[C@@H]4CC[C@@]23C)O1` [Compound 6, alismanin F], the “Inhibition of compounds against sEH, 50 μM (%)” value (from here on “Inhibition of compounds … (%)”) on sEH [1] (setting [3]) is on record as 71.6 ± 2.12%. Also, on sEH [1] (setting [4]), the IC50 was 14.6 ± 1.1 µM.

Regarding `C=C(C)[C@@H](O)[C@@H](O)C[C@@H](C)C1=C2CC[C@H]3[C@@]4(C)CCC(=O)C(C)(C)[C@@H]4CC[C@]3(C)[C@@]2(C)CC1` [Compound 4, 11-deoxy-25-anhydro alisol E], the Inhibition type result at sEH [2] (from Lineweaver-Burk plots) is listed as “mixed-type competitive”. Besides, on sEH [2] (inhibition constant from slope plots), the affinity, expressed as Ki, was 12.6 µM. Moreover, at sEH [1] (setting [3]), the “Inhibition of compounds … (%)” value worked out at 71.21 ± 1.56%. In addition, on sEH [1] (setting [4]), the IC50 was determined as 5.94 ± 0.54 µM.

Consider `CC(=O)O[C@H]([C@@H](O)C[C@@H](C)C1=C2C[C@H](O)[C@H]3[C@@]4(C)CCC(=O)C(C)(C)[C@@H]4CC[C@]3(C)[C@@]2(C)CC1)C(C)(C)O` [Compound 25, alisol A 24-acetate], for which the IC50 at sEH [1] (setting [4]) was found to be 21.4 ± 1.7 µM.

In the case of `CC1(C)O[C@@H]1[C@@H](O)C[C@](C)(O)C1=C2C[C@H](O)[C@H]3[C@@]4(C)CCC(=O)C(C)(C)[C@@H]4CC[C@]3(C)[C@@]2(C)CC1=O` [Compound 19, 20-hydroxy alisol C], on sEH [1] (setting [4]), the IC50 is 22.2 ± 1 µM.

For `CC(C)(O)C1O[C@](C)(C2=C3C[C@H](O)[C@H]4[C@@]5(C)CCC(=O)C(C)(C)[C@@H]5CC[C@]4(C)[C@@]3(C)CC2=O)CC1O` (stereo partly shown) [Compound 7, alismanol O], on sEH [1] (setting [3]), the “Inhibition of compounds … (%)” value was found to be 24.45 ± 1.03%. Further, the concentration for half-maximal inhibition (IC50) on sEH [1] (setting [4]) is > 50 µM.

Consider `C=C(C)[C@H](O)[C@@H](O)C[C@@H](C)C1=C2C=C[C@H]3[C@@]4(C)CCC(=O)C(C)(C)[C@@H]4CC[C@]3(C)[C@@]2(C)CC1=O` [Compound 12, alismanol B], for which the “Inhibition of compounds … (%)” value at sEH [1] (setting [3]) is recorded as 44.97 ± 0.95%. Further, the IC50 on sEH [1] (setting [4]) was > 50 µM.

Take `C[C@H](C[C@H](O)[C@@H](O)C(C)(C)O)C1=C2C[C@H](O)[C@H]3[C@@]4(C)CCC(=O)C(C)(C)[C@@H]4CC[C@]3(C)[C@@]2(C)CC1` [Compound 2, alisol A]: the IC50 against sEH [1] was > 50 µM. At sEH [1] (pH 7.4, read-out: Inhibition of compounds against sEH, 50 μM (%)), the inhibition at 50 µM was 27.3 ± 2.81%.

Consider `C=C(C)[C@H](O)[C@@H]1C[C@@H](C)C2=C3C[C@H](O)[C@H]4[C@@]5(C)CCC(=O)C(C)(C)[C@@H]5CC[C@]4(C)[C@@]3(C)C[C@@H]2O1` [Compound 16, 25-anhydro alisol F], for which the IC50 at sEH [1] (setting [4]) came out at 21.2 ± 0.5 µM.

For the compound “25-ethoxy-16-oxo-11-anhydro alisol A [Compound 18]”, the half-maximal inhibitory concentration (IC50) at sEH [1] (setting [4]) was found to be 31.5 ± 1.4 µM.

In the case of `C[C@@H]1C[C@@H]([C@@H](O)C(C)(C)O)O[C@H]2C[C@@]3(C)C(=C12)[C@H](O)C[C@H]1[C@@]2(C)CCC(=O)C(C)(C)[C@@H]2CC[C@@]13C` [Compound 22, 11-deoxy-12β-hydroxy alisol F], the “Inhibition of compounds … (%)” value on sEH [1] (setting [3]) is recorded as 17.96 ± 0.69%. For the same compound, on sEH [1] (setting [4]), the IC50 is > 50 µM.

For `CCOC(C)(C)[C@H](O)[C@@H](O)C[C@@H](C)C1=C2C[C@H](O)[C@H]3[C@@]4(C)CCC(=O)C(C)(C)[C@@H]4CC[C@]3(C)[C@@]2(C)CC1` [Compound 15, 25-O-ethyl alisol A], the “Inhibition of compounds … (%)” value at sEH [1] (setting [3]) came out at 78.66 ± 2.19%. For the same compound, the half-inhibitory concentration (IC50) at sEH [1] (setting [4]) came out at 9.57 ± 0.88 µM.

As for `CC(=O)O[C@H]([C@@H]1C[C@@H](C)C2=C3[C@H](O)C[C@H]4[C@@]5(C)CCC(=O)C(C)(C)[C@@H]5CC[C@]4(C)[C@@]3(C)C[C@@H]2O1)C(C)(C)O` [Compound 21, 11-deoxy-12β-hydroxy alisol F 24-acetate], the “Inhibition of compounds … (%)” value at sEH [1] (setting [3]) is reported as 39.33 ± 0.92%. The 50% inhibitory concentration (IC50) on sEH [1] (setting [4]) was > 50 µM.

Regarding `CC(C)[C@@H](O)C[C@@H](C)C1=C2C[C@H](O)[C@H]3[C@@]4(C)CCC(=O)C(C)(C)[C@@H]4CC[C@]3(C)[C@@]2(C)CC1` [Compound 1, Alismanin B], at sEH [1] (setting [3]), the “Inhibition of compounds … (%)” value was found to be 75.31 ± 2.42%. Besides, the IC50 at sEH [1] (setting [4]) amounted to 7.15 ± 1.09 µM.

As to `COC(=O)C[C@@H](C)C1=C2[C@H](O)C[C@H]3[C@@]4(C)CCC(=O)C(C)(C)[C@@H]4CC[C@]3(C)[C@@]2(C)C[C@@H]1OC` [Compound 17, alismanin E], the “Inhibition of compounds … (%)” value at sEH [1] (setting [3]) turned out to be 49.44 ± 1.15%. Also, at sEH [1] (setting [4]), the IC50 was > 50 µM.

Consider `C[C@@H]1C[C@@H]([C@@H](O)C(C)(C)O)O[C@H]2C[C@@]3(C)C(=C12)CC[C@H]1[C@@]2(C)CCC(=O)C(C)(C)[C@@H]2CC[C@@]13C` [Compound 13, 11-deoxy alisol F], for which the IC50 on sEH [1] (setting [4]) turned out to be 22.1 ± 1.4 µM.

Regarding `CC(CC(O)C(=O)C(C)(C)O)C1=C2CC(O)C3C4(C)CCC(=O)C(C)(C)C4CC(O)C3(C)C2(C)CC1` (stereo not drawn) [Compound 10, 7α-hydroxy-24-oxo alisol A], the “Inhibition of compounds … (%)” value at sEH [1] (setting [3]) came to 18.64 ± 0.45%. For the same compound, the IC50 on sEH [1] (setting [4]) was > 50 µM.

In the case of “25-methoxy alisol F 23-acetate [Compound 20]”, at sEH [1] (setting [3]), the “Inhibition of compounds … (%)” value was 17.63 ± 0.56%. At sEH [1] (setting [4]), the IC50 is > 50 µM.

Regarding `CC(CC(O)C(O)C(C)(C)O)C1=C2C(O)C(O)C3C4(C)CCC(=O)C(C)(C)C4CC(O)C3(C)C2(C)CC1` (stereo not drawn) [Compound 8, 7α,12α-dihydroxyalisol A], the “Inhibition of compounds … (%)” value on sEH [1] (setting [3]) was 44.42 ± 1.43%. For the same compound, on sEH [1] (setting [4]), the IC50 was > 50 µM.

For `COC(C[C@@H](C)C1=C2C[C@H](O)[C@H]3[C@@]4(C)CCC(=O)C(C)(C)[C@@H]4CC[C@]3(C)[C@@]2(C)CC1)OC` [Compound 3, alismanin D], at sEH [1] (setting [3]), the “Inhibition of compounds … (%)” value came to 78.54 ± 1.86%. Also, on sEH [1] (setting [4]), the half-maximal inhibitory concentration (IC50) is 14.8 ± 1.1 µM.

Consider `C=C(C)[C@@H]1OC(C)(C)O[C@H]1C[C@@H](C)C1=C2C[C@H](O)[C@H]3[C@@]4(C)CCC(=O)C(C)(C)[C@@H]4CC[C@]3(C)[C@@]2(C)CC1` [Compound 24, alisol G (23, 24)-diol acetonide], for which the IC50 on sEH [1] (setting [4]) came out at 14.6 ± 1.6 µM.

For the compound `C[C@@H]1C[C@@H]([C@@H](O)C(C)(C)O)O[C@H]2C[C@@]3(C)C(=C12)C[C@H](O)[C@H]1[C@@]2(C)CCC(=O)C(C)(C)[C@@H]2CC[C@@]13C` [Compound 14, alisol F], at sEH [1] (setting [3]), the “Inhibition of compounds … (%)” value was determined as 18.30 ± 0.35%. For the same compound, the IC50 at sEH [1] (setting [4]) was > 50 µM.

Turning to `COC1CC2(C)C(=C1C(C)CC(O)C(OC(C)=O)C(C)(C)O)C(O)CC1C3(C)CCC(=O)C(C)(C)C3CCC12C` (stereo not drawn) [Compound 23, 1-deoxy-12β-hydroxy-16β-methoxy alisol A 24-acetate], the “Inhibition of compounds … (%)” value on sEH [1] (setting [3]) is on record as 16.27 ± 0.72%. For the same compound, the IC50 at sEH [1] (setting [4]) is > 50 µM.

Regarding “16-oxo-11-anhydro alisol A 23,24-acetonide [Compound 11]”, the IC50 at sEH [1] (setting [4]) was 36.3 ± 4 µM.

For the compound alisol B 23-acetate [Compound 9], the “Inhibition of compounds … (%)” value on sEH [1] (setting [3]) turned out to be 37.63 ± 0.86%. For the same compound, the IC50 on sEH [1] (setting [4]) was > 50 µM.

For the origin of these results see PMC7233170 (Bioorganic chemistry, 2020).
